# Measured values as given in patent publication EP2730577A1, “CRYSTAL MODIFICATION OF A PARA-METHOXYANILIDE OF 6-HYDROXY-4-OXO-2,4,DIHYDRO-1H-PYRROLO[3,2,1-IJ]-QUINOLINE-5-CARBOXYLIC ACID” (Otkrytoe Aktsionernoe Obschestvo Mezhdunarodnaya, priority 2012, dated 2013).
# Experiments:
# white rats [1] = test: Diuretic effect (urinary excretion) in rats after oral administration; format: in vivo; conditions: for Diuresis after 5 hr.: 10 mg/kg orally as a fine suspension in water stabilized with Tween-80, after water load, urine excreted over 5 hrs, control 4.3 ± 0.20 ml, 10 mg/kg; for Diuretic effect: 5 hr, relative to control = 100, 10 mg/kg
# Experimental: Example 6. Diuretic effect of the novel crystal modification (β-form) of 6-hydroxy-4-oxo-2,4-dihydro-1H-pyrrolo[3,2,1-ij]-quinoline-5-carboxylic acid para-metoxyanilide compared to the effect of the known crystal modification (α-form) of the same compound was studied on white rats weighing 180 - 200 g
# (12 animals per each compound) using a standard technique. All tested animals received water via a gastric tube at 5 ml per […] of body weight. The control group received the same amount of water with Tween 80. The tested substances were administered orally at 10 mg/kg (median effective dose of the known α-form) as a fine suspension in water stabilized with Tween-80. After that, the tested animals were placed into "exchange cages". The urinary excretion intensity was determined by the amount of urine excreted by the animals over a period of 5 hrs. The experimental data shown in Table 9 leads to a conclusion that the diuretic action of the novel crystal modification (β-form) of 6-hydroxy-4-oxo-2,4-dihydro-1H-pyrrolo[3,2,1-ij]-quinoline-5-carboxylic acid para-metoxyanilide exceeds that of the known α-form by an average of 19%.
# white rats [2] = conditions: diuretic effect, oral; stated for the known α-form without data of its own; cited from earlier work
SMILES,Diuresis after 5 hr. (white rats [1]) [mL],Diuretic effect (white rats [1]; 10 mg/kg orally) [%],median effective dose (white rats [2]) [mg/kg],"diuretic action exceeds that of the known α-form (white rats [1]; 10 mg/kg orally, 5 hrs, β-form versus α-form, average) [%]"
"COc1ccc(NC(=O)c2c(O)c3cccc4c3n(c2=O)CC4)cc1 [Known α-form, 6-hydroxy-4-oxo-2,4-dihydro-1H-pyrrolo[3,2,1-ij]-quinoline-5-carboxylic acid para-metoxyanilide]",9.7 ± 0.28,226,10,–
"COc1ccc(NC(=O)c2c(O)c3cccc4c3n(c2=O)CC4)cc1 [Novel β-form, 6-hydroxy-4-oxo-2,4-dihydro-1H-pyrrolo[3,2,1-ij]-quinoline-5-carboxylic acid para-metoxyanilide]",10.5 ± 0.27,245,–,19
